Measurements published in US11040053B2, “Compositions and methods for activating “stimulator of interferon gene”13 dependent signalling” (CHINOOK THERAPEUTICS, INC., priority 2015, dated 2021).
“Also recorded” adds a separate entry of the source.

Tests used:
hSTING HAQ allele = biological target: T1, hSTING HAQ allele (Homo sapiens, UniProt Q86WV6, G230A/H232R/R293Q/R71H); experiment: IRF-3 inducible secreted luciferase reporter in THP1-Dual cells without digitonin; type: cell-based; conditions: for activity relative to OH reference compound, in words: Table 5 comment, THP1 cells without digitonin
T1 construct: a human monocyte cell line containing the hSTING HAQ allele; host or cells: THP1-Dual cells
Summary of the method: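 THP1-Dual cells were exposed for 30 min, washed, and cultured overnight at 37 °C in fresh RPMI/10% FBS. Secreted luciferase in the supernatant was read with QUANTI-Luc as the type I interferon signal. EC50 was taken from a 10-point serial-dilution dose-response curve.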

hSTING(WT) = hSTING(WT) (Homo sapiens, UniProt Q86WV6, H232R); experiment: Differential scanning fluorometry (DSF) binding to purified hSTING WT; design: DNA encoding amino acids 140-379 (amino acid numbering corresponding to Swiss Prot Q86WV6); 6xHIS (N, cleaved yes); SUMO (N, cleaved yes); made in house; host or cells: Rosetta2 (DE3) E. coli; conditions: for Tm shift compared with non fluorine substituted compounds and 2′3′-(G)(A), in words: FIG. 3, hSTING (WT); for binding relative to OH reference compound, in words / binding relative to naturally produced 2′3′-(G)(A), in words: Table 4 comment, wild type hSTING
HAQ allele hSTING = biological target: T2, HAQ allele hSTING (Homo sapiens, UniProt Q86WV6, G230A/H232R/R293Q); experiment: Differential scanning fluorometry (DSF) binding to purified hSTING HAQ allele; conditions: for binding relative to OH reference compound, in words / binding relative to naturally produced 2′3′-(G)(A), in words: Table 4 comment, HAQ allele hSTING
T2 construct: DNA encoding amino acids 140-379 (amino acid numbering corresponding to Swiss Prot Q86WV6); 6xHIS (N, cleaved yes); SUMO (N, cleaved yes); made in house; host or cells: Rosetta2 (DE3) E. coli

hSTING(REF) = hSTING(REF) (Homo sapiens, UniProt Q86WV6); experiment: IFN-β luciferase reporter in HEK293T cells stably expressing hSTING(REF), digitonin permeabilization; conditions: FIGS. 6A-B, 0.1 μM to 100 μM and 6.25 μM CDN
Description: 24 hours later, cells were stimulated with native and synthetic CDN derivative molecules using digitonin permeabilization to ensure uniform uptake.
After 20 min, the stimulation mixtures were removed and 200 ul of DMEM media supplemented with 10% (vol/vol) fetal bovine serum, 1% L-Glutamine, and 1% Penicillin/Streptomycin was added. Cells were incubated an additional 6 hours (37° C., 5% CO2) and then cell lysates were prepared and reporter gene activity measured on a Spectramax M3 luminometer using the Dual-Glo Luciferase Assay System (Promega, catalog #E2920) as described by the manufacturer. IFNβ firefly luciferase reporter gene activity was normalized to TK renilla luciferase gene activity and plotted as fold induction over activity in unstimulated cells (mean+/−s.e.m.).

[1] = biological target: T3, wild type (WT) STING allele (Homo sapiens, UniProt Q86WV6, H232R); experiment: Cytokine transcript induction (qRT-PCR) in STING^WT/WT hPBMCs; type: cell-based; conditions: for relative normalized IFNβ expression, in words: FIGS. 7A-B, 2 hours stimulation, 100 μM to 0.1 μM
T3 construct: one donor was homozygous for the wild type (WT) STING allele; endogenous in cells; host or cells: human PBMCs, donor STING WT/WT
Description: The induction of type I interferon was measured in human primary blood mononuclear cells (hPBMCs) to evaluate the potency of mono- or di-F-CDN compounds as described herein. hPBMCs from two unique donors were used: one donor was homozygous for the wild type (WT) STING allele (STING^WT/WT) and the other donor was homozygous for the so-called reference (REF) STING allele (STING^REF/REF). The STING genotype of these donors was determined by PCR amplification and sequencing: genomic DNA was isolated from 10^4 hPBMCs using Quick Extract DNA Extraction Solution (Epicentre) and was used to amplify regions of exon 3, 6, and 7 of the human STING gene.
Cells were incubated at 37° C., 5% CO2 with concentrations ranging from 100 μM to 0.1 μM of each CDN. After 2 hours (FIGS. 7 and 8) or 2 hours and 6 hours (FIGS. 9-13) stimulation, cells were harvested by centrifugation and washed once with phosphate-buffered saline. Cellular RNA was isolated using the Aurum Total RNA 96 Kit and cDNA was synthesized using the iScript cDNA Synthesis Kit. Target and reference gene expression was assessed by real-time qRT-PCR using PrimePCR probe assays and the CFX96 gene cycler (all reagents and equipment from BioRad). Normalized IFNβ expression was expressed relative to untreated cells. Target genes included type I interferon (IFNβ), Th1-associated cytokines (IFNγ, IL-12p40) and NF-kB dependent inflammatory cytokines (TNFα, IL-6). Reference genes included GUSB alone (FIGS. 7 and 8) or GUSB and HSP90AB1 (FIGS. 9-13).

[2] = DSF, 1 mg/ml STING AA140-379, ligand 1 mM

T1 sequence (Q86WV6 whole entry R71H/G230A/H232R/R293Q): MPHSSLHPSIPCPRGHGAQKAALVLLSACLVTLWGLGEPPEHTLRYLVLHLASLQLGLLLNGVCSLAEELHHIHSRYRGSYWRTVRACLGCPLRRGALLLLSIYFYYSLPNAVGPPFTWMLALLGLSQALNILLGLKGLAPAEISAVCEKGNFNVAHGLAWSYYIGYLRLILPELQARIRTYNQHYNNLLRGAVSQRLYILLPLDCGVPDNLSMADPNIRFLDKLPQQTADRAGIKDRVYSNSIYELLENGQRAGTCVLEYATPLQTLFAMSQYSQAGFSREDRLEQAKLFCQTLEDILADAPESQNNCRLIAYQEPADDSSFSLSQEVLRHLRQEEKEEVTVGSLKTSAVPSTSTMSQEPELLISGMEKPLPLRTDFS
Chain of hSTING(WT) (Q86WV6 140-379 H232R): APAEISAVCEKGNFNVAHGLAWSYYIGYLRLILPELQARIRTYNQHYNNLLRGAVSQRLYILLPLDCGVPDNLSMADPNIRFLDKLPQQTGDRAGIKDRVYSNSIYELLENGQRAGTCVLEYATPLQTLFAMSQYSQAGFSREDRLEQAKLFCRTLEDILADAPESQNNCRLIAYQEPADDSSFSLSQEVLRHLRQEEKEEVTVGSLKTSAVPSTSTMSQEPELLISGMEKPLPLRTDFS
T2 sequence (Q86WV6 140-379 G230A/H232R/R293Q limits assumed): as the sequence (Q86WV6 140-379 H232R) above, with G91A, R154Q counted along it
T3 sequence (Q86WV6 whole entry H232R): as the sequence (Q86WV6 whole entry R71H/G230A/H232R/R293Q) above, with H71R, A230G, Q293R counted along it
Chain of hSTING(REF) (Q86WV6 whole entry): as the sequence (Q86WV6 whole entry R71H/G230A/H232R/R293Q) above, with H71R, A230G, R232H, Q293R counted along it

Nc1nc2c(ncn2[C@@H]2O[C@@H]3CO[P@@](=O)(S)O[C@H]4[C@@H](F)[C@H](n5cnc6c(N)ncnc65)O[C@@H]4CO[P@@](=O)(S)O[C@H]3[C@H]2F)c(=O)[nH]1 (stereo in doubt) [Compound 14, 2-Amino-9-((2R,3R,3aR,5R,7aR,9R,10R,10aR,12R,14aR)-9-(6-amino-9H-purin-9-yl)-3,10-difluoro-5,12-dimercapto-5,12-dioxidooctahydro-2H,7H-difuro [3,2-d:3′,2′-j][1,3,7,9]tetraoxa[2,8]diphosphacyclododecin-2-yl)-1,9-dihydro-6H-purin-6-one]
activity relative to OH reference compound, in words (hSTING HAQ allele): improved activity
Tm shift compared with non fluorine substituted compounds and 2′3′-(G)(A), in words (hSTING(WT)): increased Tm shift
binding relative to OH reference compound, in words (hSTING(WT)): improved binding
binding relative to naturally produced 2′3′-(G)(A), in words (hSTING(WT)): improved binding
binding relative to OH reference compound, in words (HAQ allele hSTING): improved binding
binding relative to naturally produced 2′3′-(G)(A), in words (HAQ allele hSTING): improved binding
IFNβ luciferase reporter induction by hSTING(REF), in words (hSTING(REF)): strongly induced IFNβ reporter activity, to a level similar to the endogenous cellular ligand 2′3′-(G)(A)
relative normalized IFNβ expression, in words [1]: most potent inducer of type I interferon in STING^WT/WT hPBMCs
IFNβ level compared to the parent cGAMP compound ([1]; in the dose range tested): 10-100 fold

Nc1ncnc2c1ncn2[C@@H]1O[C@@H]2CO[P@@](=O)(S)O[C@H]3[C@@H](F)[C@H](n4cnc5c(N)ncnc54)O[C@@H]3CO[P@@](=O)(S)O[C@H]2[C@H]1F [Compound 6, (2R,3R,3aR,5R,7aR,9R,10R,10aR,12R,14aR)-2,9-bis(6-amino-9H-purin-9-yl)-3,10-difluoro-5,12-dimercaptooctahydro-2H,7H-difuro[3,2-d:3′,2′-j][1,3,7,9]tetraoxa[2,8]diphosphacyclododecine 5,12-dioxide]
activity relative to OH reference compound, in words (hSTING HAQ allele): improved activity
EC50 (hSTING HAQ allele; without digitonin in THP1 cells (HAQ allele)): 19 µM
hSTING Tm Shift WT (hSTING(WT); [2]): 19.3 °C
Tm shift compared with non fluorine substituted compounds and 2′3′-(G)(A), in words (hSTING(WT)): increased Tm shift
binding relative to OH reference compound, in words (hSTING(WT)): improved binding
binding relative to naturally produced 2′3′-(G)(A), in words (hSTING(WT)): improved binding
hSTING Tm Shift HAQ (HAQ allele hSTING; [2]): 32.4 °C
binding relative to OH reference compound, in words (HAQ allele hSTING): improved binding
binding relative to naturally produced 2′3′-(G)(A), in words (HAQ allele hSTING): improved binding
IFNβ luciferase reporter induction by hSTING(REF), in words (hSTING(REF)): strongly induced IFNβ reporter activity, to a level similar to the endogenous cellular ligand 2′3′-(G)(A)
relative normalized IFNβ expression, in words ([1]; listed as 3′3′-RR-(2′F-A)(2′F-A)): induced similar levels of IFNβ; also recorded: induced higher levels of IFNβ transcript when compared to the 3′3′-(A)(A) compound; also recorded: stimulated higher levels of IFNβ transcript by STING^WT/WT hPBMCs when compared to non-canonical 2′3′-(G)(A)
